The record followed here is patent publication US20130252930A1 (BIOMARIN PHARMACEUTICAL INC., priority 2010, published 2013).

Series [1] has as its target T1, Human C17,20-lyase (microsomal fraction from human testis) (Homo sapiens, UniProt P05093).
T1 construct: using microsomal fraction from human testis (Celsis Cat #S00110) as the enzyme source; tissue Celsis S00110; host or cells: human testis microsomal fraction
T1 sequence (P05093 1-508): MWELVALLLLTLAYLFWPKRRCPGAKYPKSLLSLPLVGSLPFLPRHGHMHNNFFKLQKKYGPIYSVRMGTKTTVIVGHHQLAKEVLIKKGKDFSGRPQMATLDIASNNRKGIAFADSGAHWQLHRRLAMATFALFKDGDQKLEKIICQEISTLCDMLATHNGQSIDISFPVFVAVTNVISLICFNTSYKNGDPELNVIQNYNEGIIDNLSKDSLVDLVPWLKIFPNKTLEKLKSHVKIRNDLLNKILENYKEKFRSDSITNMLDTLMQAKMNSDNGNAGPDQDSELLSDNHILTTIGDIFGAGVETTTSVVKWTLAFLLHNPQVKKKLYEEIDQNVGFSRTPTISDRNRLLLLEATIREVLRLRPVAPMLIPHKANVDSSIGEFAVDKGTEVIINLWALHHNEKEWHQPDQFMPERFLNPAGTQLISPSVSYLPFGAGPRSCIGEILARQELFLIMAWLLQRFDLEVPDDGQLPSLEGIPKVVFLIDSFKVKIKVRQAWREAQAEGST
Description: CYP17 enzymatic assay (% inhibition at 10 nM), version 2 (Biological Example 6). The format is biochemical. The conditions noted are these: method: tested at 100 nM; human testis microsome, radiometric. The procedure:
Human C17,20-lyase enzymatic assays were conducted in 200 μL volume in Eppendorf tubes, using microsomal fraction from human testis (Celsis Cat #S00110) as the enzyme source. Total protein concentration of the microsomal fraction is estimated to be 20 mg/ml. Prior to adding the microsomal fractions, reaction mixtures containing 50 mM NaPO4 buffer (pH 7.4), 1 mM MgCl2, 0.1 mM EDTA, 0.1 mM dithiothreitol, 0.5 mM NADPH, 4 μM 17α-hydroxypregnenolone, 1 μL of [21-^3H]-17α-hydroxypregnenolone (American Radiolabeled Chemicals, ART #1663, Specific activity=50-60 Ci/mmol), and the appropriate testing compounds were incubated for 5 minutes in a 37° C. shaking water bath (150 rpm). Following the 5-minute pre-incubation, 5 μL of human testis microsome was added to each of the reaction mixtures (except for the Negative Controls, which received 5 μL of H2O). After 30-minute incubation at 37° C. in shaking water bath (150 rpm), reactions were stopped by addition of 200 μL of cold chloroform and vigorous shaking for 30 minutes. Tubes were centrifuged at 1,500×g for 15 minutes at 4° C., and the aqueous phase was transferred to fresh Eppendorf tubes. Forty microliters (40 μL) of 8.5% charcoal (Sigma Cat #C6241) suspension was added to each tube, mixed well and incubated at 4° C. for 30 minutes. Tubes were centrifuged at 1,500×g for 15 minutes at 4° C., and 100 μL upper layer from each tube was transferred into each well of a 96-well isoplate (PerkinElmer Cat #6005040). Finally, 100 μL of Optiphase supermix scintillation fluid (PerkinElmer Cat #1200430) was added to each well, mixed by pippeting up and down 3 times. Radioactivity was measured with MicroBeta Trilux Counter using tritium program.
All testing compounds were dissolved and diluted in methanol. Two microliters (2 μL) of the properly diluted test compound was added to each reaction to reach the desired concentration. In Negative control (no enzyme activity) and Activity control (100% enzyme activity), 2 μL of methanol was added. Each data point was tested in duplicate. […]
For compounds of further interest, IC50 value was generated by measuring the inhibition rate at 5 concentrations and using Prism software under “non-linear regression analysis.”

A short description of series [2]: Rat liver microsome stability assay (Biological Example 8a). The conditions noted are these: liver microsomes, pH 7.4. A general note: Microsomes from liver hold many membrane-bound enzymes, among them those of drug oxidation.
Description: (§1) Each test compound (1.5 μM, 30 μL) was incubated with rat (BD Gentest, Cat No. 452501) or human (BD Gentest, Cat No. 452161) liver microsomes (0.75 mg/mL, 0.1 M potassium phosphate buffer, 1.0 mM EDTA, pH 7.4) in 96 well plates. The reaction was started with addition of excess NADPH (5 mg/mL, 15 μL in 0.1 M potassium phosphate buffer, 1.0 mM EDTA, pH 7.4), the total volume is 45 μL (compound final concentration was 1 μM). The incubations were terminated at time zero and at 5, 15, 30, and 60 minutes by addition of 135 μL/excess ACN containing internal standard (1S). After quenching, the reaction mixtures was centrifuged (Eppendorf Centrifuge 5810R) at 3220×g for 10 min (4° C.). 50 μL of the supernatant was transferred from each well into a 96-well sample plate containing 50 μL of ultra-pure water (Millipore) for LC-MS/MS analysis. The half-life T1/2=0.693/K (K is the rate constant from a plot of log [concentration] vs. incubation time) was calculated.
The target in series [3] is T2, CYP17 (human testicular microsome) (Homo sapiens, UniProt P05093).
T2 construct: using microsomal fraction from human testis (Celsis Cat #S00110) as the enzyme source; tissue Celsis S00110; host or cells: human testis microsomal fraction
T2 sequence (P05093 1-508): T1 sequence (P05093 1-508)
Description: CYP17 enzymatic assay (% inhibition at 10 nM), version 1 (Biological Example 5). The format is biochemical. The conditions noted are these: 10 nM compound, DHEA by ELISA, read-out: Biological Example No. 5: CYP17 percent inhibition at 10 nM (version 1).

Series [4] is described as follows: in vitro. The conditions noted are these: rat, microsomes, pH 7.4.
Description: as §1
The nature of series [5]: Human liver microsome stability assay (Biological Example 8b). The conditions noted are these: liver microsomes, pH 7.4.
Description: (§2) The reaction was started with addition of excess NADPH (5 mg/mL, 15 μL in 0.1 M potassium phosphate buffer, 1.0 mM EDTA, pH 7.4), the total volume is 45 μL (compound final concentration was 1 μM). […] 50 μL of the supernatant was transferred from each well into a 96-well sample plate containing 50 μL of ultra-pure water (Millipore) for LC-MS/MS analysis.
Series [6] concerns the target T2, CYP17 (human testicular microsome). Description: CYP17 enzymatic assay (IC50) (Biological Example 4). The note with it: human testicular microsome, DHEA by ELISA; read-out: Biological Example No. 4: CYP17 enzymatic assay IC50. The format is biochemical. (In general: ELISA stands for enzyme-linked immunosorbent assay.)
Series [7] concerns the target T3, Cyp21 enzyme (Human HEK 293-Cyp21 stable transfected cells) (Homo sapiens, UniProt P08686).
T3 construct: expressed in transfected cells
T3 sequence (P08686 1-495): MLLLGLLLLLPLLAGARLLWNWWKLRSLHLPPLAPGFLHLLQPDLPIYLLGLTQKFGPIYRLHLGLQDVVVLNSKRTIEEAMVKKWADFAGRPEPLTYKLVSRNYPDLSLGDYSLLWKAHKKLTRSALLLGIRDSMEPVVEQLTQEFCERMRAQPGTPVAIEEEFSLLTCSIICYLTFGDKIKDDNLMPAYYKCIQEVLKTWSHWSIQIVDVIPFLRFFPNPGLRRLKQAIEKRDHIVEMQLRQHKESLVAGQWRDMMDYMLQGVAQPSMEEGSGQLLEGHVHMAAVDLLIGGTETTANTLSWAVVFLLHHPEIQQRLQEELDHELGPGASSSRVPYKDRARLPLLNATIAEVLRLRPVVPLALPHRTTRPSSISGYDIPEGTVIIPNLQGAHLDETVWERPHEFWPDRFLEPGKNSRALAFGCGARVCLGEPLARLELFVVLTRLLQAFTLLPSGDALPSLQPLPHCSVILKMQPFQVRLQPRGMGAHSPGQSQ
Description: CYP21-HEK293 enzymatic assay (% inhibition at 100 nM) (Biological Example 10). The series is classed as cell-based. The conditions noted are these: compound at 100 nM; HEK 293-Cyp21 cells; read-out: CYP21-HEK293 enzymatic assay % inhibition at 100 nM (Biological Example No. 10). The gist of the method: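 Percent inhibition at 100 nM: DOC in conditioned medium was read by ELISA at 450 nm and quantified from a standard curve. Stably transfected human Cyp21 HEK293 cells were pretreated 5 h with compound or 1% methanol mock, then given 10 μM final progesterone for 20 h at 37 °C.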

Series [8] deals with rat Cyp11B enzyme (rat adrenal mitochondria). The series is described as follows: CYP11B enzymatic assay (% inhibition at 100 nM) (Biological Example 9). The note with it: compound at 100 nM. The series is classed as biochemical. The gist of the method: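 Sprague Dawley rat adrenal mitochondria were incubated with compound at 100 nM, 0.5 mM NADPH and 0.1 μM 11-deoxycortisol (pH 7.4 Tris buffer) for 60 min at 37 °C. Cortisol was measured by ELISA and corrected by subtracting the no-NADPH background. % inhibition is relative to the no-compound reaction.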

A short description of series [9]: in vitro. The conditions noted are these: human, microsomes, pH 7.4.
Description: as §2
Series [10] deals with T2, CYP17 (human testicular microsome). The series is described as follows: CYP17 enzymatic assay (% inhibition at 1 nM) (Biological Example 12). The format is biochemical. The conditions noted are these: compound at 1 nM, read-out: CYP17 enzymatic assay % inhibition at 1 nM (Biological Example No. 12).

Take `C[C@]12CCC3C(CCN4C(=O)CC=CC[C@]34C)C1CC=C2c1cccnc1` (stereo partly drawn) [Compound 34, (11aR,13aS)-11a,13a-dimethyl-1-(pyridin-3-yl)-3b,4,5,8,11,11a,11b,12,13,13a-decahydro-3H-azepino[2,1-a]cyclopenta[f]isoquinolin-7(3aH)-one]: the “Biological Example No. 6: CYP17 percent inhibition (version 2)” value in series [1] was “F (F means the compound had a percent inhibition of greater than or equal to 38%)”. This molecule also showed a half-life at 1 μM in series [2] of 1 to 10 min.

As for `C[C@]12CCC3C(CCN4C(=O)C=CCC[C@]34C)C1CC=C2c1cccnc1` (stereo partly drawn) [Compound 35, (11aR,13aS)-11a,13a-dimethyl-1-(pyridin-3-yl)-3b,4,5,10,11,11a,11b,12,13,13a-decahydro-3H-azepino[2,1-a]cyclopenta[f]isoquinolin-7(3aH)-one], the “Biological Example No. 6: CYP17 percent inhibition (version 2)” value in series [1] is reported as “F (F means the compound had a percent inhibition of greater than or equal to 38%)”.

As for `C[C@]12CCCCC1=CC[C@@H]1[C@@H]2CC[C@]2(C)C(c3cccnc3)=CC[C@@H]12` [Compound 67, 3-((10R,13S)-10,13-dimethyl-2,3,4,7,8,9,10,11,12,13,14,15-dodecahydro-1H-cyclopenta[a]phenanthren-17-yl)pyridine], the inhibition at 0.01 µM in series [3] was in the range of 50 to 80%. The half-life at 1 μM in [4] was 1 to 10 min.

Consider `C[C@]12CCOC(=O)C[C@@H]1CC[C@@H]1[C@@H]2CC[C@]2(C)C(c3cccnc3)=CC[C@@H]12` [Compound 112, (1S,2S,8S,12S,16S,11R)-2,16-dimethyl-15-(3-pyridyl)-5-oxatetracyclo[9.7.0.0^2,8.0^12,16]octadec-14-en-6-one], for which, in series [1], the “Biological Example No. 6: CYP17 percent inhibition (version 2)” value was “F (F means the compound had a percent inhibition of greater than or equal to 38%)”. Besides, the values for the half-life at 1 μM in [5] and in series [2] were 1 to 50 min and 10 to 60 min, respectively. For the same molecule, the IC50 in series [6] was less than 11 nM.

For `C[C@]12CCC(=O)OC[C@@H]1CC[C@@H]1[C@@H]2CC[C@]2(C)C(c3cccnc3)=CC[C@@H]12` [Compound 113, (1S,12S,16S,2R,8R,11R)-2,16-dimethyl-15-(3-pyridyl)-6-oxatetracyclo[9.7.0.0^2,8.0^12,16]octadec-14-en-5-one], the “Biological Example No. 6: CYP17 percent inhibition (version 2)” value in series [1] is “F (F means the compound had a percent inhibition of greater than or equal to 38%)”. The half-life at 1 μM in series [5] lay within 1 to 50 min; in [2] it was 10 to 60 min. In [6], the IC50 was less than 11 nM.

Regarding `COc1cncc(C2=CC[C@H]3[C@@H]4CC[C@H]5COC(=O)CC[C@]5(C)[C@H]4CC[C@]23C)c1` [Compound 115, (1S,12S,16S,2R,8R,11R)-15-(5-methoxy(3-pyridyl))-2,16-dimethyl-6-oxatetracyclo[9.7.0.0^2,8.0^12,16]octadec-14-en-5-one], in series [1], the “Biological Example No. 6: CYP17 percent inhibition (version 2)” value is “F (F means the compound had a percent inhibition of greater than or equal to 38%)”.

Consider `CCOc1cncc(C2=CC[C@H]3[C@@H]4CC[C@H]5COC(=O)CC[C@]5(C)[C@H]4CC[C@]23C)c1` [Compound 117, (1S,12S,16S,2R,8R,11R)-15-(5-ethoxy(3-pyridyl))-2,16-dimethyl-6-oxatetracyclo[9.7.0.0^2,8.0^12,16]octadec-14-en-5-one], for which the “Biological Example No. 6: CYP17 percent inhibition (version 2)” value in series [1] is listed as “G (G means the compound had a percent inhibition of less than 38% but greater than or equal to 3%)”.

As to `CCNC(=O)NC1CC[C@@]2(C)C(=CCC3C2CC[C@]2(C)C(n4ccnc4)=CCC32)C1` (stereo partly drawn) [Compound 242, 1-((10R,13S)-17-(1H-imidazol-1-yl)-10,13-dimethyl-2,3,4,7,8,9,10,11,12,13,14,15-dodecahydro-1H-cyclopenta[a]phenanthren-3-yl)-3-ethylurea], the inhibition at 0.1 µM in [7] was less than 30%. The “CYP11B enzymatic assay % inhibition at 100 nM (Biological Example No. 9)” value in [8] was “U (U means the compound had a percent inhibition of greater than or equal to 32%)”. For the same molecule, in series [9], the half-life at 1 μM fell in the range of 1 to 50 min. In addition, in [10], the inhibition at 0.001 µM was greater than 50%.

As a reminder, the half-life is the time needed for the level to fall by half in the phase considered. High values mean slow decline, low ones rapid decline. The inhibition is the change of the read-out against control, counted positive when it falls. One may read the IC50 as the concentration at which inhibition is half-maximal.
